Source: US7488799B2, “Prostaglandin receptor protein” (Aventis Pharmaceuticals Inc., priority 2003, dated 2009)

Experiments:
[1] = test system: recombinant guinea pig DP receptor; assay: Intracellular calcium assay (FLIPR), guinea pig DP receptor in HEK293-Gα16 cells; assay type: cell-based, guinea pig (Cavia porcellus); conditions: guinea pig DP-expressing HEK293-Gα16 cells, FIG. 6, read-out: EC50, intracellular calcium mobilization
Procedure: For functional characterization the newly cloned guinea pig DP receptor was stably transfected into HEK293-Gα16 cells and for comparison an equivalent cell line was generated with the mouse DP receptor. Both DP receptor-expressing cell lines, as well as the parental cell line not expressing any transfected DP receptor, were evaluated in a second messenger assay using the force coupling of the receptor to Gα16 to elicit a calcium response. Intracellular calcium measurements were performed using non-transfected HEK293-Gα16 cells or cells transfected with either the pEAK10-gpDP or the pEAK10-mDP expression vectors. Transfected and non-transfected cells were plated in 384 well plates at 10,000 cells per well. Cells were washed three times with calcium assay buffer. Cells were then incubated with 4 μM of the calcium loading dye Fura-4/AM (Molecular Probes) at 37° C. for x min. Unincorporated fura-4/AM was removed by three further washes with calcium assay buffer. Intracellular calcium was measured following PGD2 or buffer stimulation of Fura-4/AM loaded cells using a FLIPR instrument (Molecular Devices Corp.).

[2] = target: T1, mouse DP receptor (Mus musculus, UniProt P70263); assay: Intracellular calcium assay (FLIPR), mouse DP receptor in HEK293-Gα16 cells; assay type: cell-based; conditions: mouse DP-expressing HEK293-Gα16 cells, FIG. 6, read-out: EC50, intracellular calcium mobilization
T1 construct: A full length cDNA for the mouse DP receptor was obtained by PCR; expressed in transfected cells
T1 sequence (P70263 1-357): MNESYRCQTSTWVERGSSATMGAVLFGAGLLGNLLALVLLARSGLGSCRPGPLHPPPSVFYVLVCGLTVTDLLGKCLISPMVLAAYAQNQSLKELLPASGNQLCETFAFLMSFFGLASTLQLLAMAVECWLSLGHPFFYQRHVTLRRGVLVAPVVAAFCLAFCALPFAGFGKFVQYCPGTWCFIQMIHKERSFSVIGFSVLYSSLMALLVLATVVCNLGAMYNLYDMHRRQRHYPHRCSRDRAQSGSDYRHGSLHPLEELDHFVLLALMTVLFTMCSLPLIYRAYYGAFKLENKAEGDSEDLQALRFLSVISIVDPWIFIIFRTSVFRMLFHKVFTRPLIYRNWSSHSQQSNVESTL
Procedure: The pEAK10-gpDP and pEAK10-mDP vectors were transfected into the HEK293-Gα16 cell line using Lipofectamine 2000 (Gibco) as described by the manufacturer. Transfected cells were cultured under selection with 1 ug/ml puromycin and 250 ug/ml zeocin for 5 weeks. Expression of the DP receptor was monitored in the transfected cell population by measuring the release of intracellular calcium in response to PGD2 stimulation.
For functional characterization the newly cloned guinea pig DP receptor was stably transfected into HEK293-Gα16 cells and for comparison an equivalent cell line was generated with the mouse DP receptor. Both DP receptor-expressing cell lines, as well as the parental cell line not expressing any transfected DP receptor, were evaluated in a second messenger assay using the force coupling of the receptor to Gα16 to elicit a calcium response. Intracellular calcium measurements were performed using non-transfected HEK293-Gα16 cells or cells transfected with either the pEAK10-gpDP or the pEAK10-mDP expression vectors. Transfected and non-transfected cells were plated in 384 well plates at 10,000 cells per well. Cells were washed three times with calcium assay buffer. […] Intracellular calcium was measured following PGD2 or buffer stimulation of […] loaded cells using a FLIPR instrument (Molecular Devices Corp.).

[3] = test system: parental HEK293-Gα16 cell line; assay: Intracellular calcium assay (FLIPR), parental cell line without transfected DP receptor; assay type: cell-based; conditions: parental HEK293-Gα16 cells, no transfected DP receptor
From the text: The cDNA encoding human Gα16 was cloned as described (Amatruda et al., 1991). Briefly, total RNA from HL-60 human promyelocytic leukemia cells was isolated and used as a template for PCR-mediated synthesis of cDNA encoding Gα16. The resulting PCR product was cloned into the expression vector pHook-3 (Invitrogen), which also coexpresses a single-chain antibody (sFv) to allow convenient enrichment of transfected cells using a panning protocol with hapten-coated magnetobeads (Chesnut et al., 1996). HEK293 cells were transfected with the constructed plasmid (pGα16), selected with Zeocin and positive clones enriched using magnetobeads according to protocols supplied by the vendor. […]
For functional characterization the newly cloned guinea pig DP receptor was stably transfected into HEK293-Gα16 cells and for comparison an equivalent cell line was generated with the mouse DP receptor. Both DP receptor-expressing cell lines, as well as the parental cell line not expressing any transfected DP receptor, were evaluated in a second messenger assay using the force coupling of the receptor to Gα16 to elicit a calcium response. […] Intracellular calcium was measured following PGD2 or buffer stimulation of […] loaded cells using a FLIPR instrument (Molecular Devices Corp.).

[4] = test system: recombinant guinea pig DP receptor; assay: SPA cAMP assay, guinea pig DP cell line; assay type: cell-based, guinea pig (Cavia porcellus); conditions: 15 minutes stimulation, FIG. 7, read-out: EC50, cAMP accumulation
Procedure: (§1) An additional functional characterization of the newly cloned guinea pig DP receptor used the natural signaling pathway for DP, the stimulation of cAMP production by adenylate cyclase. Transfected or non-transfected cells were plated at 40,000 cells per well of a 96 well plate. After overnight incubation at 37° C., medium was replaced and cells were stimulated with defined concentrations of PGD2 for 15 minutes. The accumulation of cAMP was measured in the stimulated cells using the cAMP SPA Direct Screening Assay System (Amersham) according to procedures specified by the manufacturer.

[5] = target: T1, mouse DP receptor; assay: SPA cAMP assay, mouse DP cell line; assay type: cell-based; conditions: 15 minutes stimulation, FIG. 7, read-out: EC50, cAMP accumulation
[6] = test system: parental HEK293-Gα16 cell line; assay: SPA cAMP assay, parental cell line; assay type: cell-based; conditions: parental HEK293-Gα16 cells, 15 minutes stimulation
Procedure: as §1

With CCCCC[C@H](O)/C=C/[C@H]1C(=O)C[C@H](O)[C@@H]1C/C=C\CCCC(=O)O [PGD2, Prostaglandin D2] the EC50 [1] was 1.4 nM, the EC50 [2] was 18 nM and the “PGD2 concentration at which a calcium response is seen” value [3] was “above 10 μM”. For the same compound, the EC50 [4] was 0.8 nM, the EC50 [5] was 0.5 nM and the “intracellular cAMP response to stimulation” value [6] was “did not show an increase in intracellular cAMP”.
